# Test results: US20140221498A1, “AMINO DIOL DERIVATIVES AS SPHINGOSINE 1-PHOSPHATE (S1P) RECEPTOR MODULATORS” (ALLERGAN, INC., priority 2013, published 2014)
# Target: T1, human S1P1 receptor (Homo sapiens, UniProt P21453)
# T1 construct: expressed in transfected cells; membranes used
# Test: GTP γ35S binding assay for S1P1 activity
# Format: biochemical
# Conditions: membranes of cells stably expressing the S1P1 receptor, test compounds 0.08 to 5,000 nM, 30 min at 25° C.
# Procedure: Compounds were synthesized and tested for S1P1 activity using the GTP γ^35S binding assay. These compounds may be assessed for their ability to activate or block activation of the human S1P1 receptor in cells stably expressing the S1P1 receptor.
# GTP γ^35S binding was measured in the medium containing (mM) HEPES 25, pH 7.4, MgCl2 10, NaCl 100, dithitothreitol 0.5, digitonin 0.003%, 0.2 nM GTP γ^35S, and 5 μg membrane protein in a volume of 150 μl. Test compounds were included in the concentration range from 0.08 to 5,000 nM unless indicated otherwise. Membranes were incubated with 100 μM 5′-adenylylimmidodiphosphate for 30 min, and subsequently with 10 μM GDP for 10 min on ice. Drug solutions and membrane were mixed, and then reactions were initiated by adding GTP γ^35S and continued for 30 min at 25° C. Reaction mixtures were filtered over Whatman GF/B filters under vacuum, and washed three times with 3 mL of ice-cold buffer (HEPES 25, pH7.4, MgCl2 10 and NaCl 100). Filters were dried and mixed with scintillant, and counted for ^35S activity using a β-counter. Agonist-induced GTP γ^35S binding was obtained by subtracting that in the absence of agonist. Binding data were analyzed using a non-linear regression method. In case of antagonist assay, the reaction mixture contained 10 nM S1P in the presence of test antagonist at concentrations ranging from 0.08 to 5000 nM.
# T1 sequence (P21453 whole entry): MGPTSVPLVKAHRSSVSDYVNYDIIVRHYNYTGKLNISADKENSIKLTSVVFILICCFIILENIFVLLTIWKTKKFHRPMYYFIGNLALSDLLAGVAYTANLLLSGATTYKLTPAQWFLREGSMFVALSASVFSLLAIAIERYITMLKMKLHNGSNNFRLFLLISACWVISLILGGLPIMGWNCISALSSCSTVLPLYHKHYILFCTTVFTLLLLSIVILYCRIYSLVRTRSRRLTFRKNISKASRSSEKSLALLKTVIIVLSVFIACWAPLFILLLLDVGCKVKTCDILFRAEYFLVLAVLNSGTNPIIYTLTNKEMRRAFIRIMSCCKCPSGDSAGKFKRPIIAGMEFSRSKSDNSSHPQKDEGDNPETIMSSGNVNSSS
row,EC50 [nM],SMILES
1,42,"Cc1ccc(CC(CCCOc2ccc(CCC(N)(CO)CO)cc2)c2cccc(F)c2)cc1C (stereo not drawn) [Compound 2, 2-amino-2-[2-(4-{[5-(3,4-dimethylphenyl)-4-(3-fluorophenyl)pentyl]oxy}phenyl)ethyl]propane-1,3-diol]"
2,15.1,"Cc1ccc(CC(CCCOc2ccc(CCC(N)(CO)CO)cc2)c2cc(F)cc(F)c2)cc1C (stereo not drawn) [Compound 1, 2-amino-2-[2-(4-{[4-(3,5-difluorophenyl)-5-(3,4-dimethylphenyl)pentyl]oxy}phenyl)ethyl]propane-1,3-diol]"
3,92.4,"Cc1ccc(CC(CCCOc2ccc(CCC(N)(CO)CO)cc2)c2cccc(Cl)c2)cc1C (stereo not drawn) [Compound 3, 2-amino-2-[2-(4-{[4-(3-chlorophenyl)-5-(3,4-dimethylphenyl)pentyl]oxy}phenyl)ethyl]propane-1,3-diol]"
